Measured values taken from publication PMC10301603, “Potent and Selective Benzothiazole-Based Antimitotics with Improved Water Solubility: Design, Synthesis, and Evaluation as Novel Anticancer Agents” (Pharmaceutics, 2023).
pIC50: −log10 of the molar value. In brackets after ≈: the same amount, converted by molar mass. Read-outs that look alike come from different tables or passages of the source.

How the values were obtained:
bovine brain tubulin = test: Tubulin polymerization inhibition (turbidimetry); format: biochemical; settings: for pIC50: concentration inhibiting 50% of microtubular protein polymerization in vitro, read-out: TPI IC50; for % TPI: compounds tested at 10 µM, with respect to the negative control
Protocol: Microtubular protein was isolated from calf brain following the modified Shelanski method, based on temperature-dependent assembly/disassembly of tubulin [45]. The protein was stored at −80 °C, and its concentration was determined using the Bradford method before each use. Tubulin polymerization, which occurs when heating a buffered tubulin sample from 4 °C to 37 °C, is accompanied by an increase in the absorbance (at 450 nm) of the sample that was monitored by a Helios α spectrophotometer. […] Then, the temperature was adjusted to 4 °C, and the temperature being shifted to 37 °C allowed for the assembly process of tubulin. The turbidity caused by tubulin polymerization was measured by the increased absorbance at 450 nm. The increase in absorbance obtained for the control sample (without the ligand), which we considered to be 100% tubulin polymerization (0% inhibition), compared with the increase in absorbance determined for the sample containing ligands yielded the degree of tubulin polymerization inhibition (TPI), which is expressed as a percentage value. For the compounds displaying TPI values over 50% at 10 µM, the IC50 value for TPI was calculated. Measurements were performed in triplicate in two independent experiments using microtubular protein from different preparations.

[1] = Aqueous solubility, shake-flask method; format: physicochemical; settings: pH 7.0 buffer, thermodynamic from solid, shaking flask, buffered media at pH 7.0, mean of three
Protocol: The aqueous solubility of compounds was measured in a Helios Alfa Spectrophotometer. Calibration lines at the maximum wavelength of absorbance were determined for each compound. Then, following the shake-flask method, a suspension of 5 mg of each compound in 500 µL in pH 7.0 buffer was stirred for 72 h at room temperature. The mixture was then filtrated over a […] filter to remove the insoluble fraction. The concentration of the compound in the resulting saturated solution was determined via UV absorbance measurement and interpolation in the calibration line. The aqueous solubility values are given as the average of three independent measurements.

[2] = cited from earlier work
GL261 cells = test: Cell growth inhibition assay (MTT); format: cell-based, murine; settings: Mus musculus, GL261, 72 h after drug exposure
Protocol: (§1) The cell lines were obtained from ATTC (Manassas, VA, USA). HeLa (human cervix epithelioid carcinoma), MCF7 (human breast adenocarcinoma), HepG2 (human hepatocellular carcinoma), U87 MG (human glioblastoma), T98G (human glioblastoma), GL261 (murine glioma), LNCaP (human prostate cancer), PC-3 (human prostate cancer), and HEK-293 (human embryonic kidney) were grown in Dulbecco’s modified Eagle’s medium (DMEM, Gibco, Waltham, MA, USA), supplemented with 10% (v/v) heat-inactivated fetal bovine serum (HIFBS, Sigma-Aldrich, St. Louis, MO, USA)), 2 mM L-glutamine, 100 μg/mL streptomycin, and 100 units/mL penicillin (Gibco, Waltham, MA, USA) at 37 °C in saturated humidity atmosphere containing 95% air and 5% CO2. Cell line HT-29 (human colon carcinoma) was grown in Roswell Park Memorial Institute (RPMI) 1640 medium (Gibco, Whaltman, MA, USA) supplemented with 10% HIFBS, 100 μg/mL streptomycin, and 100 units/mL penicillin (Gibco, Whaltman, MA, USA) at 37 °C in humidified 95% air and 5% CO2 atmosphere. MycoAlert kit (Lonza, Norwest, Australia) was used to routinely check the presence of mycoplasma, and only mycoplasma-free cells were employed in the experiments.
(§2) Cells were plated in 96-well plates (100 µL/well) at the following concentrations: 30,000 cells/mL (HepG2, U87 MG, T98G, C6, LNCaP, PC3, and HT-29 cells) or 15,000 cells/mL (HeLa and MCF-7 cells). Previous experiments were performed to choose the optimal cell concentration (70–80% confluence) and avoid the formation of cell aggregates. Cells were incubated in complete DMEM or RPMI 1640 medium (see above) at 37 °C and 5% CO2 atmosphere for 24 h to allow for cell attachment to the plate. Then, every compound was added (10 µL/well) to a final concentration of 10 µM. Non-treated cells were used as negative controls. The antiproliferative activity of compounds was measured 72 h after the treatments using the MTT reagent (3-[4,5-dimethylthiazol-2-yl]-2,5-diphenyltetrazolium bromide), (MTT Thiazolyl Blue Tetrazolium Bromide, Sigma-Aldrich, St. Louis, MO, USA) dissolved in PBS at 5 mg/mL. Compounds showing antiproliferative effects at 10 µM were selected to determine their IC50 value. For that purpose, compounds were used at different concentrations ranging from 10^−10 to 10^−2 M. Measurements were performed in triplicate, and each experiment was repeated three times. The IC50 value was determined for every compound using Origin software (OriginLab, Washington, USA). To study the sensitivity to MDR efflux pumps of compounds, the IC50 values were determined by following the same procedure but in the presence of verapamil (final concentration of 10 µM).

HEK-293 cells = test: Cell growth inhibition assay (MTT), non-tumorigenic cells; format: cell-based, human; settings: Homo sapiens, HEK293, 72 h after drug exposure, non-tumorigenic cell line
Protocol: as §1, §2

HT-29 cells [3] = test: Cell growth inhibition (MTT) in the presence of 10 µM verapamil (sensitivity to MDR efflux pumps); format: cell-based, human; settings: 10 µM verapamil (P-gp/MDR1 inhibitor)
Protocol: as §2

tumor cell lines = test: Cell growth inhibition assay (MTT), summary statements over several cell lines; format: cell-based; settings: read-out: antiproliferative IC50
Protocol: as §2

T98G cells = test: Cell growth inhibition assay (MTT); format: cell-based, human; settings: Homo sapiens, T98G, 72 h after drug exposure
Protocol: as §1, §2

LNCaP cells = test: Cell growth inhibition assay (MTT); format: cell-based, human; settings: Homo sapiens, LNCaP, 72 h after drug exposure
Protocol: as §1, §2

HepG2 cells = test: Cell growth inhibition assay (MTT); format: cell-based, human; settings: Homo sapiens, HepG2, 72 h after drug exposure
Protocol: as §1, §2

HeLa cells [4] = test: Cell growth inhibition assay (MTT); format: cell-based, human; settings: Homo sapiens, HeLa, 72 h after drug exposure
Protocol: as §1, §2

HT-29 cells [5] = test: Cell growth inhibition assay (MTT); format: cell-based, human; settings: Homo sapiens, HT-29, 72 h after drug exposure
Protocol: as §1, §2

U87MG cells = test: Cell growth inhibition assay (MTT); format: cell-based, human; settings: Homo sapiens, U-87 MG; MTT, 72 h after drug exposure
Protocol: as §1, §2

MCF7 cells = test: Cell growth inhibition assay (MTT); format: cell-based, human; settings: Homo sapiens, MCF7; MTT, 72 h after drug exposure
Protocol: as §1, §2

PC-3 cells = test: Cell growth inhibition assay (MTT); format: cell-based, human; settings: Homo sapiens, PC-3, 72 h after drug exposure
Protocol: as §1, §2

HeLa cells [6] = system: HeLa cells; design: method as in PMID 25970265; settings: read-out: IC50 cell proliferation of HeLa cells; cited from earlier work

Question: With `COc1ccc(/C=C\c2cc(OC)c(OC)c(OC)c2)cc1O` [CA-4, combretastatin A-4, reference compound] as the compound, how does the pIC50 (bovine brain tubulin) read?
Answer: […]

Question: And the solubility at 72 h ([1]; pH 7, aqueous buffer)?
Answer: 1.1 µg/mL (≈ 3.48 µM)

Question: What about the water solubility [2] of the same compound?
Answer: 1 µg/mL (≈ 3.16 µM)

Question: With `COc1ccc2nc(NCc3ccncc3)sc2c1` [Compound 3, 6-methoxy-N-(pyridin-4-ylmethyl)benzo[d]thiazol-2-amine] as the compound, how does the pIC50 (GL261 cells) read?
Answer: 5.69

Question: And the pIC50 (HEK-293 cells)?
Answer: < 5.00

Question: And the pIC50 (bovine brain tubulin)?
Answer: < 5.00

Question: What about the pIC50 (HT-29 cells [3]) of the same compound?
Answer: 5.49

Question: And the pIC50 (tumor cell lines; HeLa, HepG2, MCF7, and U87MG)?
Answer: ~6.00

Question: And the pIC50 (tumor cell lines; the rest of the tumor cell lines (other than HeLa, HepG2, MCF7, U87MG))?
Answer: 5.52 to 5.70

Question: What about the pIC50 (T98G cells) of the same compound?
Answer: 5.64

Question: What about the pIC50 (LNCaP cells) of the same compound?
Answer: 5.70

Question: What about the pIC50 (HepG2 cells) of the same compound?
Answer: 5.91

Question: And the pIC50 (HeLa cells [4])?
Answer: 5.84

Question: What about the pIC50 (HT-29 cells [5]) of the same compound?
Answer: 5.47

Question: And the pIC50 (U87MG cells)?
Answer: 5.82

Question: And the pIC50 (MCF7 cells)?
Answer: 5.76

Question: What about the pIC50 (PC-3 cells) of the same compound?
Answer: 5.48

Question: What about the solubility at 72 h ([1]; pH 7, aqueous buffer) of the same compound?
Answer: 55 µg/mL (≈ 203 µM)

Question: With `CCNC(=O)N(Cc1ccccn1)c1nc2ccc(OC)cc2s1` [Compound 7, 3-ethyl-1-(6-methoxybenzo[d]thiazol-2-yl)-1-(pyridin-2-ylmethyl)urea] as the compound, how does the pIC50 (GL261 cells) read?
Answer: 7.02

Question: And the pIC50 (HEK-293 cells)?
Answer: 5.06

Question: What about the “% TPI” value (bovine brain tubulin) of the same compound?
Answer: 87%

Question: And the pIC50 (bovine brain tubulin)?
Answer: 5.38

Question: What about the pIC50 (HT-29 cells [3]) of the same compound?
Answer: 6.50

Question: And the pIC50 (tumor cell lines; the rest of the cell lines (other than glioblastoma U87MG and GL261))?
Answer: 6.52 to 7.00

Question: What about the pIC50 (T98G cells) of the same compound?
Answer: 6.90

Question: What about the pIC50 (LNCaP cells) of the same compound?
Answer: 6.61

Question: What about the pIC50 (HepG2 cells) of the same compound?
Answer: 6.70

Question: And the pIC50 (HeLa cells [4])?
Answer: 6.56

Question: What about the pIC50 (HT-29 cells [5]) of the same compound?
Answer: 6.52

Question: What about the pIC50 (U87MG cells) of the same compound?
Answer: 7.21

Question: What about the pIC50 (MCF7 cells) of the same compound?
Answer: 6.60

Question: What about the pIC50 (PC-3 cells) of the same compound?
Answer: 6.48

Question: And the solubility at 72 h ([1]; pH 7, aqueous buffer)?
Answer: 98 µg/mL (≈ 286 µM)

Question: Which results are given for `COc1ccc2nc(N(C=O)Cc3ccccn3)sc2c1` [Compound 13, N-(6-methoxybenzo[d]thiazol-2-yl)-N-(pyridin-2-ylmethyl)formamide]?
Answer: pIC50 (GL261 cells): 6.71; pIC50 (HEK-293 cells): 5.03; % TPI (bovine brain tubulin): 80%; pIC50 (bovine brain tubulin): 5.30; pIC50 (HT-29 cells [3]): 6.27; pIC50 (tumor cell lines; Homo sapiens, MCF7, glioblastoma and MCF7 cells): ~6.70; pIC50 (tumor cell lines; all the cell lines): 6.30 to 6.52; pIC50 (T98G cells): 6.49; pIC50 (LNCaP cells): 6.50; pIC50 (HepG2 cells): 6.49; pIC50 (HeLa cells [4]): 6.48; pIC50 (HT-29 cells [5]): 6.25; pIC50 (U87MG cells): 6.60; pIC50 (MCF7 cells): 6.66; pIC50 (PC-3 cells): 6.37; solubility at 72 h ([1]; pH 7, aqueous buffer): 90 µg/mL (≈ 301 µM)

Question: What does the source list for `Cc1cc2nc(/C=C/c3cccnc3)sc2cc1C` [MI181, reference compound]?
Answer: pIC50 (bovine brain tubulin): 5.34; pIC50 (HeLa cells [6]): 7.77; solubility at 72 h ([1]; aqueous buffer): 5.6 µg/mL (≈ 21 µM)
